# Test results as given in US9932309B2, “2-oxo-3,4-dihydropyridine-5-carboxylates and their use” (UNIVERSITE DE LILLE 2 DROIT ET SANTE, priority 2014, dated 2018).
# Tests used:
# hTGR5 = molecular target: T1, hTGR5 (Homo sapiens, UniProt Q8TDU6); assay: TGR5/CRE Luciferase Assay (hTGR5); assay type: cell-based; conditions: for EC50: HEK 293 cells co-transfected with pCMV tag4b-TGR5h and pCRE TA-Luciferase, overnight incubation; for hTGR5 % trans: percentage of the 10 μM LCA value, HEK 293 cells transfected with hTGR5
# T1 construct: expressed in transfected cells; host or cells: HEK293 cells, transiently co-transfected with the pCRE TA-Luciferase reporter
# T1 sequence (Q8TDU6 1-330): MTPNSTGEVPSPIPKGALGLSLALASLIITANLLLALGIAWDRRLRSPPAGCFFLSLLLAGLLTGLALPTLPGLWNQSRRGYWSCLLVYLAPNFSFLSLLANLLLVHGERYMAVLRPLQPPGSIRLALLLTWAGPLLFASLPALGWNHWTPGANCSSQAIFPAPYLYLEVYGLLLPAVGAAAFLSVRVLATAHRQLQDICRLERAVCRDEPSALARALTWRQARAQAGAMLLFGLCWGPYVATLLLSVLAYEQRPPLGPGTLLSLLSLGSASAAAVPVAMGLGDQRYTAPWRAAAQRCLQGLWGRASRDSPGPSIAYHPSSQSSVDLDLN
# Description: (§1) TGR5/CRE Luciferase Assay
# (§2) In the following Tables TGR5 activation by compounds of the invention and subsequent increase in intracellular cAMP were evaluated using a luciferase reporter gene assay. Human embryonic kidney (HEK) 293 cells were transiently co-transfected with pCMV tag4b-TGR5 h (to follow hTGR5 activation) or pCMV AC6-TGR5m (to follow mTGR5 activation) expression plasmids and the pCRE TA-Luciferase reporter plasmid using the JET PEI reagent (Polyplus transfection). Transfected cells were seeded in 96-well plates and incubated overnight with the test compounds at increasing concentrations tested in duplicate. Lithocolic acid (LCA) at 10 μM was used as a positive reference compound. The cAMP-dependent luciferase expression was followed using the BrightGlo reagent according to the manufacturer (Promega) instructions. Luminescence was read with a Mithras plate reader (Berthold) or a Victor3™ V1420 (Perkin Elmer). […] Concentration-response curves were fitted by a nonlinear regression analysis to a 4 parameter logistic equation
# mTGR5 = molecular target: T2, mTGR5 (Mus musculus, UniProt Q80SS6); assay: TGR5/CRE Luciferase Assay (mTGR5); assay type: cell-based; conditions: for EC50: HEK 293 cells co-transfected with pCMV AC6-TGR5m and pCRE TA-Luciferase, overnight incubation; for mTGR5 % trans: percentage of the 10 μM LCA value, HEK 293 cells transfected with mTGR5
# T2 construct: expressed in transfected cells; host or cells: HEK293 cells, transiently co-transfected with the pCRE TA-Luciferase reporter
# T2 sequence (Q80SS6 1-329): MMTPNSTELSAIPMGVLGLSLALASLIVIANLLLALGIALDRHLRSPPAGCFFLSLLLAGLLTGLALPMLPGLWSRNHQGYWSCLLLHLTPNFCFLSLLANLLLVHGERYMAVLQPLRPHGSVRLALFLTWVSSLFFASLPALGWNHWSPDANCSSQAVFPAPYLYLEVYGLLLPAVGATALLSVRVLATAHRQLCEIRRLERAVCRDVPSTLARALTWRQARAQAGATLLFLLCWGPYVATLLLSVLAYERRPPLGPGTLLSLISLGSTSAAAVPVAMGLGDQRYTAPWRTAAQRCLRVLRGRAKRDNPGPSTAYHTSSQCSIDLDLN
# Description: as §1, §2
Structure (SMILES),EC50 (hTGR5),hTGR5 % trans (hTGR5),EC50 (mTGR5),mTGR5 % trans (mTGR5)
"COCCN1C(=O)CC(c2ccc(Cl)cc2Cl)C(C(=O)OCc2ccccc2OC)=C1C (centres unmarked) [Example 129, (2-methoxyphenyl)methyl 4-(2,4-dichlorophenyl)-1-(2-methoxyethyl)-6-methyl-2-oxo-3,4-dihydropyridine-5-carboxylate]",400 nM,89%,900 nM,81%
"COCCN1C(=O)CC(c2ccncc2)C(C(=O)OCc2ccccc2OC)=C1C (centres unmarked) [Example 133, (2-methoxyphenyl)methyl 1-(2-methoxyethyl)-6-methyl-2-oxo-4-(4-pyridyl)-3,4-dihydropyridine-5-carboxylate]",8600 nM,72%,4900 nM,83%
"CC1=C(C(=O)OCc2ccccc2)C(c2ccc(Cl)cc2)CC(=O)N1C (centres unmarked) [Compound 17, 4-(4-Chloro-phenyl)-1,2-dimethyl-6-oxo-1,4,5,6-tetrahydro-pyridine-3-carboxylic acid benzyl ester]",600 nM,,1400 nM,
"CN1C=C(C(=O)N(C)Cc2ccccc2)C(c2ccc(Cl)cc2)CC1=O (centres unmarked) [Compound 33a, N-benzyl-4-(4-chlorophenyl)-N,1-dimethyl-2-oxo-3,4-dihydropyridine-5-carboxamide]",39000 nM,37%,1100 nM,16%
"COc1ccccc1COC(=O)C1=C(C)N(C[C@H]2CCCO2)C(=O)C[C@H]1c1cccnc1Cl (racemic) [Example 151, (2-Methoxyphenyl)methyl (4R)-4-(2-chloro-3-pyridyl)-6-methyl-2-oxo-1-[[(2R)-tetrahydrofuran-2-yl]methyl]-3,4-dihydropyridine-5-carboxylate and (2-methoxyphenyl)methyl (4S)-4-(2-chloro-3-pyridyl)-6-methyl-2-oxo-1-[[(2S)-tetrahydrofuran-2-yl]methyl]-3,4-dihydropyridine-5-carboxylate]",2200 nM,87%,12500 nM,44%
"COCCN1C(=O)CC(c2ccc(Cl)c(Cl)c2)C(C(=O)OCc2ccccc2OC)=C1C (centres unmarked) [Example 127, (2-methoxyphenyl)methyl 4-(3,4-dichlorophenyl)-1-(2-methoxyethyl)-6-methyl-2-oxo-3,4-dihydropyridine-5-carboxylate]",100 nM,89%,100 nM,109%
"COc1ccccc1COC(=O)C1=C(C)N(C[C@H]2CCCO2)C(=O)C[C@H]1c1ccc(C(F)(F)F)nc1 (racemic) [Example 150, (2-Methoxyphenyl)methyl (4S)-6-methyl-2-oxo-1-[[(2R)-tetrahydrofuran-2-yl]methyl]-4-[6-(trifluoromethyl)-3-pyridyl]-3,4-dihydropyridine-5-carboxylate and (2-methoxyphenyl)methyl (4R)-6-methyl-2-oxo-1-[[(2S)-tetrahydrofuran-2-yl]methyl]-4-[6-(trifluoromethyl)-3-pyridyl]-3,4-dihydropyridine-5-carboxylate]",25 nM,110%,100 nM,99%
"COCCN1C(=O)CC(c2ccc(Cl)cc2)C(C(=O)OCc2ccc(F)cc2)=C1C (centres unmarked) [Example 86, (4-fluorophenyl)methyl 4-(4-chlorophenyl)-1-(2-methoxyethyl)-6-methyl-2-oxo-3,4-dihydropyridine-5-carboxylate]",400 nM,71%,400 nM,82%
"COCCN1C(=O)CC(c2ccc(C#N)cc2)C(C(=O)OCc2ccccc2OC)=C1C (centres unmarked) [Example 125, (2-methoxyphenyl)methyl 4-(4-cyanophenyl)-1-(2-methoxyethyl)-6-methyl-2-oxo-3,4-dihydropyridine-5-carboxylate]",200 nM,86%,200 nM,100%
"COCCN1C(=O)CC(c2ccc(Cl)cc2)C(C(=O)OCc2c(C)cc(C)cc2C)=C1C (centres unmarked) [Example 101, (2,4,6-trimethylphenyl)methyl 4-(4-chlorophenyl)-1-(2-methoxyethyl)-6-methyl-2-oxo-3,4-dihydropyridine-5-carboxylate]",200 nM,75%,200 nM,84%
"COCCN1C(=O)CC(c2ccc(Cl)cc2)C(C(=O)OCc2cccc(C(F)(F)F)c2)=C1C (centres unmarked) [Example 91, [3-(trifluoromethyl)phenyl]methyl 4-(4-chlorophenyl)-1-(2-methoxyethyl)-6-methyl-2-oxo-3,4-dihydropyridine-5-carboxylate]",500 nM,,700 nM,
"COCCOc1ccc(COC(=O)C2=C(C)N(C[C@H]3CCCO3)C(=O)C[C@H]2c2ccc(Cl)cc2)cc1 (racemic) [Example 136, 4-(2-methoxyethoxy)phenyl]methyl (4S)-4-(4-chlorophenyl)-6-methyl-2-oxo-1-[[(2R)-tetrahydrofuran-2-yl]methyl]-3,4-dihydropyridine-5-carboxylate and 4-(2-methoxyethoxy)phenyl]methyl (4R)-4-(4-chlorophenyl)-6-methyl-2-oxo-1-[[(2S)-tetrahydrofuran-2-yl]methyl]-3,4-dihydropyridine-5-carboxylate]",20 nM,93%,40 nM,111%
"CC1=C(C(=O)OCc2ccccc2)C(c2ccc(C(F)(F)F)cc2)CC(=O)N1 (centres unmarked) [Compound 9, 2-Methyl-6-oxo-4-(4-trifluoromethyl-phenyl)-1,4,5,6-tetrahydro-pyridine-3-carboxylic acid benzyl ester]",1500 nM,48%,1400 nM,37%
"COCCN1C(=O)CC(c2ccc(Cl)cc2)C(C(=O)OCc2ccc3ccccc3c2)=C1C (centres unmarked) [Example 106, 2-naphthylmethyl 4-(4-chlorophenyl)-1-(2-methoxyethyl)-6-methyl-2-oxo-3,4-dihydropyridine-5-carboxylate]",400 nM,,200 nM,
"CC1=C(C(=O)OCc2ccccc2)C(c2ccc(Cl)cc2)CC(=O)N1CCN1CCCC1 (centres unmarked) [Compound 55, Benzyl 4-(4-chlorophenyl)-6-methyl-2-oxo-1-(2-pyrrolidin-1-ylethyl)-3,4-dihydropyridine-5-carboxylate]",4500 nM,47%,,5%
"COCCN1C(=O)CC(c2ccc(Cl)cc2)C(C(=O)OCc2ccc(OCCCN(C)C)cc2)=C1C (centres unmarked) [Example 116, [4-[3-(dimethylamino)propoxy]phenyl]methyl 4-(4-chlorophenyl)-1-(2-methoxyethyl)-6-methyl-2-oxo-3,4-dihydropyridine-5-carboxylate]",1400 nM,76%,1600 nM,82%
"CCOC(=O)CN1C(=O)CC(c2ccc(Cl)cc2)C(C(=O)OCc2ccccc2OC)=C1C (centres unmarked) [Compound 69, (2-methoxyphenyl)methyl 4-(4-chlorophenyl)-1-(2-ethoxy-2-oxo-ethyl)-6-methyl-2-oxo-3,4-dihydropyridine-5-carboxylate]",300 nM,105%,400 nM,104%
"CC1=C(C(=O)OCc2ccccc2)C(c2ccc(Cl)cc2)CC(=O)N1CC1C[N+](C)(C)C1.[I-] (centres unmarked) [Compound 48, Benzyl 4-(4-chlorophenyl)-1-[(1,1-dimethylazetidin-1-ium-3-yl)methyl]-6-methyl-2-oxo-3,4-dihydropyridine-5-carboxylate iodide]",12000 nM,13%,,0%
"CC1=C(C(=O)OCc2ccccc2)C(c2cccc(Cl)c2)CC(=O)N1 (centres unmarked) [Compound 11, 4-(3-Chloro-phenyl)-2-methyl-6-oxo-1,4,5,6-tetrahydro-pyridine-3-carboxylic acid benzyl ester]",,,,10%
